Here are results for 15 compounds from US9079964B2, “Immunoassay for cyclopropylindole based synthetic cannabinoids, metabolites and derivatives thereof” (Randox Laboratories Limited, priority 2013, dated 2015).

The first test concerns antibodies provided in European patent application number 2,487,155.
Test: not given
To be noted: antibodies of EP 2,487,155; cited from earlier work.
In the case of `CCCCCn1cc(C(=O)C2C(C)(C)C2(C)C)c2ccccc21` [UR-144, (1-pentyl-1H-Indol-3-yl)(2,2,3,3-tetramethylcyclopropyl) methanone], the “cross-reactivity (in words)” value was “no significant cross-reactivity”.

The subject of a further test is antiserum raised to Immunogen I. The experiment in a line: UR144/XLR11 Synthetic Cannabinoids (Spice) ELISA, antiserum raised to Immunogen I (third bleed). In kind it is binding, sheep. To be noted: Table 4, negative response at this concentration. As to the method: (§1) The wells of an enhanced binding 96 well polystyrene microtiter plate were coated with IgG fraction of antiserum raised to Immunogen I or II, diluted in 10 mM Tris, pH 8.5 (125 μl/well). The appropriate antibody coating dilution was determined using standard ELISA checkerboard techniques. The plate was incubated overnight at 4° C., washed 4 times over 10 minutes with Tris buffered saline containing Tween20 (TBST) and tapped dry. Standard solutions (UR-144 N-pentanoic acid) were applied at 0, 0.625, 1.25, 2.5, 5, 10, 20 and 40 ng/ml and 50 μl of each was added to the appropriate wells. 75 μl of conjugate (appropriate hapten-HRP) diluted in Tris buffer (pH 7.2) containing EDTA, D-mannitol, sucrose, thimerosol and BSA, was added to each of the wells. The appropriate dilution of conjugate was also determined using standard ELISA checkerboard techniques. The plate was incubated at 25° C. for 1 hour. Excess unbound conjugate was removed by washing 6 times over a ten minute period with TBST. 125 μl of tetramethylbenzidine (TMB) substrate solution was added to each well of the plate that was then incubated for 20 minutes in the dark at room temperature. The reaction was terminated by addition of 125 μl of 0.2 M H2SO4 to each well. The absorbance was then measured at 450 nm using a microtiter plate reader. The data are inputted to a computer program called ‘KC Junior’ (Biotek). It gives a 4 parameter fit curve and allows the calculation of concentrations between the standard runs. This program is used to calculate the IC50 values by dividing the 0 ng/ml optical density (OD) value by 2 and obtaining the concentration value from the curve for this OD.
(§2) Cross-reactivity was calculated according to the following formula: % CR=IC50, UR-144 N-pentanoic acid/IC50, cross reactant×100 Where % CR is the percentage cross-reactivity, IC50, UR-144 N-pentanoic acid is the concentration of UR-144 N-pentanoic acid that causes 50% displacement of signal and IC50, cross reactant is the concentration of the cannabinoid/metabolite/selected molecule that causes 50% displacement of signal.
A further assay was carried out in accordance with the protocol described in Example 9 using Immunogen I.
(In general: In an ELISA, binding on a coated surface is turned into a signal by an enzyme label.)
Consider `C=CCCCn1cc(C(=O)c2cccc3ccccc23)c2ccccc21` [JWH-022], for which the “Concentration of compounds that elicit a negative response” value (“Concentration” below) amounted to 100 ng/mL.

In the case of `O=C(c1cccc2ccccc12)c1cn(CCCCCO)c2ccccc12` [JWH-018 N (5 hydroxypentyl) metabolite, 1-(5-hydroxypentyl)-1H-indol-3-yl(naphthalen-1-yl)methanone], the “Concentration” value came to 100 ng/mL.

In the case of `CCCCCn1cc(C(=O)c2cccc3ccccc23)c2ccc(O)cc21` [JWH-018 (6 hydroxyindole)], the “Concentration” value was found to be 100 ng/mL.

Regarding `CCCCCn1cc(C(=O)c2ccc(OC)cc2)c2ccccc21` [RCS 4], the “Concentration” value stood at 100 ng/mL.

For `CCCCCn1c(C)c(C(=O)c2ccc(OC)c3ccccc23)c2ccccc21` [JWH-098], the “Concentration” value amounted to 100 ng/mL.

Regarding `CCCCCn1cc(C(=O)c2cccc3ccccc23)c2cc(O)ccc21` [JWH-018 (5 hydroxyindole)], the “Concentration” value was 100 ng/mL.

As to `CCCCCn1cc(C(=O)Cc2ccccc2OC)c2ccccc21` [JWH-250], the “Concentration” value was found to be 100 ng/mL.

In the case of `O=C(c1ccccc1I)c1cn(CCCCCF)c2ccccc12` [AM694], the “Concentration” value is listed as 100 ng/mL.

`O=C(c1cccc2ccccc12)c1cn(CCCCCF)c2ccccc12` [AM2201]: the “Concentration” value is 100 ng/mL.

Turning to `CCCCCn1cc(C(=O)c2ccc(Cl)c3ccccc23)c2ccccc21` [JWH-398], the “Concentration” value turned out to be 100 ng/mL.

`CCCCCn1cc(C(=O)c2ccc(OC)c3ccccc23)c2ccccc21` [JWH-081]: the “Concentration” value came to 100 ng/mL.

For the compound `CCCn1c(C)c(C(=O)c2cccc3ccccc23)c2ccccc21` [JWH-015], the “Concentration” value worked out at 100 ng/mL.

Still in this test, the particulars now being: Table 4, relative to UR144 N-Pentanoic Acid = 100.
Turning to `CCCCCn1cc(C(=O)C2C(C)(C)C2(C)C)c2ccccc21` [UR-144, (1-pentyl-1H-Indol-3-yl)(2,2,3,3-tetramethylcyclopropyl) methanone], the “% Cross-Reactivity” value is on record as 19%.

With `CC1(C)C(C(=O)c2cn(CCCCCF)c3ccccc23)C1(C)C` [XLR-11, (1-(5-fluoropentyl)-1H-Indol-3-yl)(2,2,3,3-tetramethylcyclopropyl) methanone], the “% Cross-Reactivity” value is on record as 29%.

For `CC1(C)C(C(=O)c2c[nH]c3ccccc23)C1(C)C` [UR-144 desalkyl], the “% Cross-Reactivity” value is on record as 13%.

The target in a further test is CB1 receptor (Homo sapiens, UniProt P21554).
Sequence of CB1 receptor (P21554 whole entry): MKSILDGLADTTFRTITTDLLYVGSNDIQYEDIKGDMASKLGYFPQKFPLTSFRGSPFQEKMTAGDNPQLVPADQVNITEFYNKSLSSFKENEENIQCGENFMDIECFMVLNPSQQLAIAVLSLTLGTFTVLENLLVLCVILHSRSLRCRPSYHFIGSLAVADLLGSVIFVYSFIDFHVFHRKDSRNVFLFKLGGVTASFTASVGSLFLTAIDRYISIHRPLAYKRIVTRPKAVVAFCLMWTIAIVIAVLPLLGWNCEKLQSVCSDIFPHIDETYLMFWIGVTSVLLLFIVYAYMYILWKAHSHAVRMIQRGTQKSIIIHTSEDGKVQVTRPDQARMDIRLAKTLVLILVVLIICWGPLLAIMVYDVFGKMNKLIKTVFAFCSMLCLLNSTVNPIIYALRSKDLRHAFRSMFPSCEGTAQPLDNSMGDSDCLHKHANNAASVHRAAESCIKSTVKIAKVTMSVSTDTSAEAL
Test: not given
The following applies: CB1 versus CB2; cited from earlier work.
As to `CCCCCn1cc(C(=O)C2C(C)(C)C2(C)C)c2ccccc21` [UR-144, (1-pentyl-1H-Indol-3-yl)(2,2,3,3-tetramethylcyclopropyl) methanone], the “lower affinity for the CB1 receptor than for CB2” value is 83 ×.

In another test the test system is antiserum raised to Immunogen I. Put plainly: Competitive ELISA with IgG fraction of antiserum raised to Immunogen I (second bleed) and hapten 1-HRP detecting agent. In kind it is binding, sheep. The following applies: Table 1; B = absorbance at 450 nm at x ng/ml standard, B0 at 0 ng/ml; second bleed. As for the experimental part:
as §1, §2
In order to determine the specificity of the competitive ELISAs, standard solutions of a range of structurally related synthetic cannabinoids and their metabolites were prepared in TBST (Tris-Buffered Saline and Tween 20). Using the calibration curves generated and employing a single level of cross reactants, these were used to determine the cross-reactivity of the immunoassays with these substances.
With `CCCCCn1cc(C(=O)C2C(C)(C)C2(C)C)c2ccccc21` [UR-144, (1-pentyl-1H-Indol-3-yl)(2,2,3,3-tetramethylcyclopropyl) methanone], the “% B/BO” value was 40.5%.

Take `CC1(C)C(C(=O)c2cn(CCCCCF)c3ccccc23)C1(C)C` [XLR-11, (1-(5-fluoropentyl)-1H-Indol-3-yl)(2,2,3,3-tetramethylcyclopropyl) methanone]: the “% B/BO” value was 24.0%.

With `CC1(C)C(C(=O)c2c[nH]c3ccccc23)C1(C)C` [UR-144 desalkyl], the “% B/BO” value stood at 38.5%.

The same test, now with this note: Table 1; CR based on 100% for UR-144 N-pentanoic acid.
As for `CCCCCn1cc(C(=O)C2C(C)(C)C2(C)C)c2ccccc21` [UR-144, (1-pentyl-1H-Indol-3-yl)(2,2,3,3-tetramethylcyclopropyl) methanone], the “% Cross-reactivity (CR)” value is 15.3%.

Consider `CC1(C)C(C(=O)c2cn(CCCCCF)c3ccccc23)C1(C)C` [XLR-11, (1-(5-fluoropentyl)-1H-Indol-3-yl)(2,2,3,3-tetramethylcyclopropyl) methanone], for which the “% Cross-reactivity (CR)” value turned out to be 36.9%.

Turning to `CC1(C)C(C(=O)c2c[nH]c3ccccc23)C1(C)C` [UR-144 desalkyl], the “% Cross-reactivity (CR)” value is given as 18.1%.

Still in this test, the particulars now being: Table 1; standard concentration which produces 50% B/B0; second bleed.
As to `CCCCCn1cc(C(=O)C2C(C)(C)C2(C)C)c2ccccc21` [UR-144, (1-pentyl-1H-Indol-3-yl)(2,2,3,3-tetramethylcyclopropyl) methanone], the “IC50” value came to 0.022815 µg/mL.

With `CC1(C)C(C(=O)c2cn(CCCCCF)c3ccccc23)C1(C)C` [XLR-11, (1-(5-fluoropentyl)-1H-Indol-3-yl)(2,2,3,3-tetramethylcyclopropyl) methanone], the “IC50” value came to 0.009454 µg/mL.

Consider `CC1(C)C(C(=O)c2c[nH]c3ccccc23)C1(C)C` [UR-144 desalkyl], for which the “IC50” value came out at 0.019207 µg/mL.

The same test, now with this note: Table 2; cross-reactant at 100 ng/ml (single level).
In the case of `C=CCCCn1cc(C(=O)c2cccc3ccccc23)c2ccccc21` [JWH-022], the “% B/BO” value worked out at 91.83%.

Consider `O=C(c1cccc2ccccc12)c1cn(CCCCCO)c2ccccc12` [JWH-018 N (5 hydroxypentyl) metabolite, 1-(5-hydroxypentyl)-1H-indol-3-yl(naphthalen-1-yl)methanone], for which the “% B/BO” value amounted to 87.56%.

Regarding `CCCCCn1cc(C(=O)c2cccc3ccccc23)c2ccc(O)cc21` [JWH-018 (6 hydroxyindole)], the “% B/BO” value came out at 93.92%.

As for `CCCCCn1cc(C(=O)c2ccc(OC)cc2)c2ccccc21` [RCS 4], the “% B/BO” value is recorded as 80.02%.

For the compound `CCCCCn1c(C)c(C(=O)c2ccc(OC)c3ccccc23)c2ccccc21` [JWH-098], the “% B/BO” value is on record as 93.94%.

On to `CCCCCn1cc(C(=O)c2cccc3ccccc23)c2cc(O)ccc21` [JWH-018 (5 hydroxyindole)], for which the “% B/BO” value came to 94.61%.

As to `CCCCCn1cc(C(=O)Cc2ccccc2OC)c2ccccc21` [JWH-250], the “% B/BO” value turned out to be 85.90%.

As for `O=C(c1ccccc1I)c1cn(CCCCCF)c2ccccc12` [AM694], the “% B/BO” value was 79.00%.

Regarding `O=C(c1cccc2ccccc12)c1cn(CCCCCF)c2ccccc12` [AM2201], the “% B/BO” value turned out to be 85.58%.

`CCCCCn1cc(C(=O)c2ccc(Cl)c3ccccc23)c2ccccc21` [JWH-398]: the “% B/BO” value was found to be 88.86%.

Consider `CCCCCn1cc(C(=O)c2ccc(OC)c3ccccc23)c2ccccc21` [JWH-081], for which the “% B/BO” value is on record as 97.10%.

As for `CCCn1c(C)c(C(=O)c2cccc3ccccc23)c2ccccc21` [JWH-015], the “% B/BO” value was determined as 89.77%.

The test is the same for the next values; noted with them: Table 2; cross-reactant tested at 100 ng/ml.
Turning to `C=CCCCn1cc(C(=O)c2cccc3ccccc23)c2ccccc21` [JWH-022], the “IC50” value is over 0.1 µg/mL.

In the case of `O=C(c1cccc2ccccc12)c1cn(CCCCCO)c2ccccc12` [JWH-018 N (5 hydroxypentyl) metabolite, 1-(5-hydroxypentyl)-1H-indol-3-yl(naphthalen-1-yl)methanone], the “IC50” value was over 0.1 µg/mL.

Take `CCCCCn1cc(C(=O)c2cccc3ccccc23)c2ccc(O)cc21` [JWH-018 (6 hydroxyindole)]: the “IC50” value was over 0.1 µg/mL.

Regarding `CCCCCn1cc(C(=O)c2ccc(OC)cc2)c2ccccc21` [RCS 4], the “IC50” value was over 0.1 µg/mL.

Consider `CCCCCn1c(C)c(C(=O)c2ccc(OC)c3ccccc23)c2ccccc21` [JWH-098], for which the “IC50” value was over 0.1 µg/mL.

`CCCCCn1cc(C(=O)c2cccc3ccccc23)c2cc(O)ccc21` [JWH-018 (5 hydroxyindole)]: the “IC50” value was over 0.1 µg/mL.

For `CCCCCn1cc(C(=O)Cc2ccccc2OC)c2ccccc21` [JWH-250], the “IC50” value was over 0.1 µg/mL.

Turning to `O=C(c1ccccc1I)c1cn(CCCCCF)c2ccccc12` [AM694], the “IC50” value was over 0.1 µg/mL.

`O=C(c1cccc2ccccc12)c1cn(CCCCCF)c2ccccc12` [AM2201]: the “IC50” value was over 0.1 µg/mL.

Turning to `CCCCCn1cc(C(=O)c2ccc(Cl)c3ccccc23)c2ccccc21` [JWH-398], the “IC50” value is over 0.1 µg/mL.

Turning to `CCCCCn1cc(C(=O)c2ccc(OC)c3ccccc23)c2ccccc21` [JWH-081], the “IC50” value was over 0.1 µg/mL.

Regarding `CCCn1c(C)c(C(=O)c2cccc3ccccc23)c2ccccc21` [JWH-015], the “IC50” value was over 0.1 µg/mL.

The same test, now with this note: Table 2; cross-reactant tested at 100 ng/ml; relative to UR-144 N-pentanoic acid.
For the compound `C=CCCCn1cc(C(=O)c2cccc3ccccc23)c2ccccc21` [JWH-022], the “% Cross-reactivity (CR)” value is listed as under 3.0%.

Regarding `O=C(c1cccc2ccccc12)c1cn(CCCCCO)c2ccccc12` [JWH-018 N (5 hydroxypentyl) metabolite, 1-(5-hydroxypentyl)-1H-indol-3-yl(naphthalen-1-yl)methanone], the “% Cross-reactivity (CR)” value is under 3.0%.

Consider `CCCCCn1cc(C(=O)c2cccc3ccccc23)c2ccc(O)cc21` [JWH-018 (6 hydroxyindole)], for which the “% Cross-reactivity (CR)” value is given as under 3.0%.

As for `CCCCCn1cc(C(=O)c2ccc(OC)cc2)c2ccccc21` [RCS 4], the “% Cross-reactivity (CR)” value is under 3.0%.

Turning to `CCCCCn1c(C)c(C(=O)c2ccc(OC)c3ccccc23)c2ccccc21` [JWH-098], the “% Cross-reactivity (CR)” value was under 3.0%.

Consider `CCCCCn1cc(C(=O)c2cccc3ccccc23)c2cc(O)ccc21` [JWH-018 (5 hydroxyindole)], for which the “% Cross-reactivity (CR)” value was under 3.0%.

Consider `CCCCCn1cc(C(=O)Cc2ccccc2OC)c2ccccc21` [JWH-250], for which the “% Cross-reactivity (CR)” value was under 3.0%.

Take `O=C(c1ccccc1I)c1cn(CCCCCF)c2ccccc12` [AM694]: the “% Cross-reactivity (CR)” value was under 3.0%.

With `O=C(c1cccc2ccccc12)c1cn(CCCCCF)c2ccccc12` [AM2201], the “% Cross-reactivity (CR)” value is recorded as under 3.0%.

In the case of `CCCCCn1cc(C(=O)c2ccc(Cl)c3ccccc23)c2ccccc21` [JWH-398], the “% Cross-reactivity (CR)” value is given as under 3.0%.

Consider `CCCCCn1cc(C(=O)c2ccc(OC)c3ccccc23)c2ccccc21` [JWH-081], for which the “% Cross-reactivity (CR)” value is on record as under 3.0%.

For the compound `CCCn1c(C)c(C(=O)c2cccc3ccccc23)c2ccccc21` [JWH-015], the “% Cross-reactivity (CR)” value was under 3.0%.

In general, IC50 refers to the concentration needed to halve the response being measured.
